From ChEMBL document CHEMBL3297661, “1-Substituted-5-[(3,5-dinitrobenzyl)sulfanyl]-1H-tetrazoles and their isosteric analogs: A new class of selective antitubercular agents active against drug-susceptible and multidrug-resistant mycobacteria” (Eur J Med Chem, 2014)
pIC50: −log10 of the molar value. ≈ marks a conversion by molar mass, not a printed value.

Columns and labels:
Pichia kudriavzevii [1] = assay: Antifungal activity against Candida krusei E28 after 48 hrs by broth microdilution method; format: functional; settings: E28, 48 h
[2] = system: Staphylococcus epidermidis; assay: Antibacterial activity against Staphylococcus epidermidis H 6966/08 after 24 hrs by broth microdilution method; format: functional; settings: H 6966/08, 24 h
Staphylococcus aureus [3] = assay: Antibacterial activity against Staphylococcus aureus ATCC 6538 after 48 hrs by broth microdilution method; format: functional; settings: ATCC 6538, 48 h
Lichtheimia corymbifera [4] = assay: Antifungal activity against Absidia corymbifera 272 after 48 hrs by broth microdilution method; format: functional, organism-based; settings: Lichtheimia corymbifera, 272, 48 h
[5] = Cytotoxicity against MDCK2 cells assessed as cell viability at 30 uM after 48 hrs by MTT assay; format: cell-based, Canis lupus familiaris, MDCK-II; settings: dog, read-out: Activity
Staphylococcus aureus [6] = assay: Antibacterial activity against methicillin-resistant Staphylococcus aureus H 5996/08 after 24 hrs by broth microdilution method; format: functional; settings: H 5996/08, 24 h
[7] = Cytotoxicity against human HuH7 cells assessed as reduction in cell viability after 48 hrs by MTT assay; format: cell-based; settings: Huh-7, 48 h
[8] = Cytotoxicity against MDCK2 cells assessed as reduction in cell viability after 48 hrs by MTT assay; format: cell-based; settings: Canis lupus familiaris, MDCK-II
Candida tropicalis [9] = assay: Antifungal activity against Candida tropicalis 156 after 24 hrs by broth microdilution method; format: functional; settings: Candida tropicalis, 156, 24 h
Klebsiella pneumoniae [10] = assay: Antibacterial activity against extended spectrum beta-lactamase producing Klebsiella pneumoniae J 14368/08 after 48 hrs by broth microdilution method; format: functional; settings: J 14368/08, 48 h
[11] = Cytotoxicity against human HuH7 cells assessed as cell viability at 30 uM after 48 hrs by MTT assay; format: cell-based, Huh-7; settings: read-out: Activity
Trichosporon asahii [12] = assay: Antifungal activity against Trichosporon asahii 1188 after 24 hrs by broth microdilution method; format: functional; settings: Trichosporon asahii, 1188, 24 h
Escherichia coli [13] = assay: Antibacterial activity against Escherichia coli ATCC 8739 after 24 hrs by broth microdilution method; format: functional; settings: ATCC 8739, ATCC 8739, 24 h
HepG2 = assay: Cytotoxicity against human HepG2 cells assessed as reduction in cell viability after 48 hrs by MTT assay; format: cell-based; settings: HepG2, 48 h
Klebsiella pneumoniae [14] = assay: Antibacterial activity against Klebsiella pneumoniae D 11750/08 after 48 hrs by broth microdilution method; format: functional; settings: D 11750/08, 48 h
Enterococcus faecalis [15] = assay: Antibacterial activity against Enterococcus faecalis J 14365/08 after 48 hrs by broth microdilution method; format: functional; settings: J 14365/08, 48 h
Staphylococcus aureus [16] = assay: Antibacterial activity against methicillin-resistant Staphylococcus aureus H 5996/08 after 48 hrs by broth microdilution method; format: functional; settings: H 5996/08, 48 h
Mycobacterium kansasii [17] = assay: Antimycobacterial activity against Mycobacterium kansasii 6509/96 after 14 days by micromethod; format: functional; settings: 6509/96, 336 h
Aspergillus fumigatus [18] = assay: Antifungal activity against Aspergillus fumigatus 231 after 24 hrs by broth microdilution method; format: functional, organism-based; settings: Aspergillus fumigatus, 231, 24 h
[19] = Cytotoxicity against human HeLa cells assessed as cell viability at 30 uM after 48 hrs by MTT assay; format: cell-based; settings: read-out: Activity
Nakaseomyces glabratus [20] = assay: Antifungal activity against Candida glabrata 20/I after 24 hrs by broth microdilution method; format: functional
[21] = system: Staphylococcus epidermidis; assay: Antibacterial activity against Staphylococcus epidermidis H 6966/08 after 48 hrs by broth microdilution method; format: functional; settings: H 6966/08, 48 h
Candida tropicalis [22] = assay: Antifungal activity against Candida tropicalis 156 after 48 hrs by broth microdilution method; format: functional; settings: Candida tropicalis, 156, 48 h
[23] = Cytotoxicity against human HepG2 cells assessed as cell viability at 30 uM after 48 hrs by MTT assay; format: cell-based; settings: read-out: Activity
[24] = system: Mycobacterium tuberculosis; assay: Antimycobacterial activity against Mycobacterium tuberculosis CNCTC My 331/88 after 14 days by micromethod; format: functional; settings: CNCTC My 331/88, 336 h
[25] = system: Trichophyton mentagrophytes; assay: Antifungal activity against Trichophyton mentagrophytes 445 after 72 hrs by broth microdilution method; format: functional, organism-based; settings: Trichophyton mentagrophytes, 445, 72 h
[26] = system: Mycobacterium tuberculosis; assay: Antimycobacterial activity against Mycobacterium tuberculosis CNCTC My 331/88 after 21 days by micromethod; format: functional; settings: CNCTC My 331/88, 504 h
HeLa = assay: Cytotoxicity against human HeLa cells assessed as reduction in cell viability after 48 hrs by MTT assay; format: cell-based
Aspergillus fumigatus [27] = assay: Antifungal activity against Aspergillus fumigatus 231 after 48 hrs by broth microdilution method; format: functional, organism-based; settings: Aspergillus fumigatus, 231, 48 h
Candida albicans [28] = assay: Antifungal activity against Candida albicans ATCC 44859 after 48 hrs by broth microdilution method; format: functional; settings: ATCC 44859, 48 h
Lichtheimia corymbifera [29] = assay: Antifungal activity against Absidia corymbifera 272 after 24 hrs by broth microdilution method; format: functional, organism-based; settings: Lichtheimia corymbifera, 272, 24 h
Mycobacterium kansasii [30] = assay: Antimycobacterial activity against Mycobacterium kansasii 6509/96 after 7 days by micromethod; format: functional; settings: 6509/96, 168 h
Trichosporon asahii [31] = assay: Antifungal activity against Trichosporon asahii 1188 after 48 hrs by broth microdilution method; format: functional; settings: Trichosporon asahii, 1188, 48 h
Enterococcus faecalis [32] = assay: Antibacterial activity against Enterococcus faecalis J 14365/08 after 24 hrs by broth microdilution method; format: functional; settings: J 14365/08, 24 h
Pseudomonas aeruginosa [33] = assay: Antibacterial activity against Pseudomonas aeruginosa ATCC 9027 after 24 hrs by broth microdilution method; format: functional; settings: ATCC 9027, 24 h
Klebsiella pneumoniae [34] = assay: Antibacterial activity against Klebsiella pneumoniae D 11750/08 after 24 hrs by broth microdilution method; format: functional; settings: D 11750/08, 24 h
Mycobacterium kansasii [35] = assay: Antimycobacterial activity against Mycobacterium kansasii CNCTC My 235/80 after 21 days by micromethod; format: functional; settings: CNCTC My 235/80, 504 h
[36] = system: Trichophyton mentagrophytes; assay: Antifungal activity against Trichophyton mentagrophytes 445 after 120 hrs by broth microdilution method; format: functional, organism-based; settings: Trichophyton mentagrophytes, 445, 120 h
Mycobacterium kansasii [37] = assay: Antimycobacterial activity against Mycobacterium kansasii 6509/96 after 21 days by micromethod; format: functional; settings: 6509/96, 504 h
Candida albicans [38] = assay: Antifungal activity against Candida albicans ATCC 44859 after 24 hrs by broth microdilution method; format: functional; settings: ATCC 44859, 24 h
Nakaseomyces glabratus [39] = assay: Antifungal activity against Candida glabrata 20/I after 48 hrs by broth microdilution method; format: functional
Staphylococcus aureus [40] = assay: Antibacterial activity against Staphylococcus aureus ATCC 6538 after 24 hrs by broth microdilution method; format: functional; settings: ATCC 6538, 24 h
Escherichia coli [41] = assay: Antibacterial activity against Escherichia coli ATCC 8739 after 48 hrs by broth microdilution method; format: functional; settings: ATCC 8739, ATCC 8739, 48 h
Pichia kudriavzevii [42] = assay: Antifungal activity against Candida krusei E28 after 24 hrs by broth microdilution method; format: functional; settings: E28, 24 h
Mycobacterium kansasii [43] = assay: Antimycobacterial activity against Mycobacterium kansasii CNCTC My 235/80 after 14 days by micromethod; format: functional; settings: CNCTC My 235/80, 336 h
Mycobacterium avium [44] = assay: Antimycobacterial activity against Mycobacterium avium CNCTC My 330/88 after 21 days by micromethod; format: functional; settings: CNCTC My 330/88, 504 h
Pseudomonas aeruginosa [45] = assay: Antibacterial activity against Pseudomonas aeruginosa ATCC 9027 after 48 hrs by broth microdilution method; format: functional; settings: ATCC 9027, 48 h
Mycobacterium avium [46] = assay: Antimycobacterial activity against Mycobacterium avium CNCTC My 330/88 after 14 days by micromethod; format: functional; settings: CNCTC My 330/88, 336 h
Mycobacterium kansasii [47] = assay: Antimycobacterial activity against Mycobacterium kansasii CNCTC My 235/80 after 7 days by micromethod; format: functional; settings: CNCTC My 235/80, 168 h
Klebsiella pneumoniae [48] = assay: Antibacterial activity against extended spectrum beta-lactamase producing Klebsiella pneumoniae J 14368/08 after 24 hrs by broth microdilution method; format: functional; settings: J 14368/08, 24 h
[49] = system: Mycobacterium tuberculosis; assay: Antimycobacterial activity against Mycobacterium tuberculosis H37Rv; format: functional

## O=[N+]([O-])c1ccc(C[Se]c2nnnn2C2CCCCC2)c([N+](=O)[O-])c1
Pichia kudriavzevii [1]
  IC80: > 500 µM
[2]
  IC95: 15.6 µM
Staphylococcus aureus [3]
  IC95: 31.2 µM
Lichtheimia corymbifera [4]
  pIC50: < 3.30
[5]
  viability at 48 h, 30 µM: 11%
Staphylococcus aureus [6]
  IC95: 31.2 µM
[7]
  pIC50: < 4.52
[8]
  pIC50: > 5.12
Candida tropicalis [9]
  IC80: > 500 µM
Klebsiella pneumoniae [10]
  IC95: > 500 µM
[11]
  viability at 48 h, 30 µM: 49%
Trichosporon asahii [12]
  IC80: 62.5 µM
Escherichia coli [13]
  IC95: > 500 µM
HepG2
  pIC50: 4.96
Klebsiella pneumoniae [14]
  IC95: > 500 µM
Enterococcus faecalis [15]
  IC95: 15.6 µM
Staphylococcus aureus [16]
  IC95: 31.2 µM
Mycobacterium kansasii [17]
  MIC: 62 µM (≈ 25.5 µg/mL)
Aspergillus fumigatus [18]
  pIC50: < 3.30
[19]
  viability at 48 h, 30 µM: 32%
Nakaseomyces glabratus [20]
  IC80: 62.5 µM
[21]
  IC95: 15.6 µM
Candida tropicalis [22]
  IC80: > 500 µM
[23]
  viability at 48 h, 30 µM: 4%
[24]
  MIC: 4 µM (≈ 1.65 µg/mL)
[25]
  pIC50: 4.51
[26]
  MIC: 8 µM (≈ 3.29 µg/mL)
HeLa
  pIC50: 4.54
Aspergillus fumigatus [27]
  pIC50: < 3.30
Candida albicans [28]
  IC80: 15.6 µM
Lichtheimia corymbifera [29]
  pIC50: 3.30
Mycobacterium kansasii [30]
  MIC: 16 µM (≈ 6.58 µg/mL)
Trichosporon asahii [31]
  IC80: 250 µM
Enterococcus faecalis [32]
  IC95: 15.6 µM
Pseudomonas aeruginosa [33]
  IC95: > 500 µM
Klebsiella pneumoniae [34]
  IC95: > 500 µM
Mycobacterium kansasii [35]
  MIC: 16 µM (≈ 6.58 µg/mL)
[36]
  pIC50: 4.51
Mycobacterium kansasii [37]
  MIC: 62 µM (≈ 25.5 µg/mL)
Candida albicans [38]
  IC80: 15.6 µM
Nakaseomyces glabratus [39]
  IC80: 62.5 µM
Staphylococcus aureus [40]
  IC95: 31.2 µM
Escherichia coli [41]
  IC95: > 500 µM
Pichia kudriavzevii [42]
  IC80: > 500 µM
Mycobacterium kansasii [43]
  MIC: 16 µM (≈ 6.58 µg/mL)
Mycobacterium avium [44]
  MIC: 32 µM (≈ 13.2 µg/mL)
Pseudomonas aeruginosa [45]
  IC95: > 500 µM
Mycobacterium avium [46]
  MIC: 32 µM (≈ 13.2 µg/mL)
Mycobacterium kansasii [47]
  MIC: 4 µM (≈ 1.65 µg/mL)
Klebsiella pneumoniae [48]
  IC95: > 500 µM

## O=[N+]([O-])c1cn2c(n1)OC[C@@H](OCc1ccc(OC(F)(F)F)cc1)C2 [PRETOMANID]
[49]
  MIC: 0.11 µM (≈ 0.0395 µg/mL)
